Read-outs that look alike come from different tables or passages of the source.
Columns and labels:
human lymphocytes [1] = system: human lymphocytes
Experimental: Peripheral blood was collected in heparinized vacutainers from healthy male and female volunteers (<40 years of age). Approximate 10 ml of whole blood was dispensed into a Lymphoprep™ tube (Nycomed Pharma AS Diagnostic, Oslo, Norway) containing ˜10 ml of sterile phosphate buffered saline. Following centrifugation for 20 minutes at 2000 rpm, the lymphocyte population was isolated and washed (1X) in PBS. Stock cultures of isolated lymphocytes were established in Williams E medium supplemented with 10% fetal calf serum, 100 U/ml penicillin and 100 ug/ml streptomycin, 2 mM L-glutamine and 1.0% Phytohemmaglutanin-M form (all reagents from Gibco BRL Life Technologies, Inc., Grand Island, N.Y.). The stock cultures were maintained at 37° C. in 5% CO2 atmosphere for about 48 hours. The lymphocytes were treated with 0 to 100 μg/ml of the aneugen, Noscapine, (Sigma Chemicals), a known aneugen, for 24 hours at 37° C.
The Noscapine treated and untreated lymphocytes, were then centrifuged for 6 minutes at 1000 rpm, the supernatant was removed and the lymphocytes were resuspended in 5 ml of Phosphate Buffered Saline (PBS; GIBCO BRL). The lymphocytes were then centrifuged, the supernatant removed, and the cells resuspended in 0.5 ml of PBS. The cell suspension was pipetted thoroughly through a 9-inch Pasteur pipette (Kimble Glass Inc.) to ensure single cell suspension. While vortexing a tube containing −20° C. (70%) ethanol (about 4.5 ml volume), the cell suspension was added drop by drop. The ethanol solution was prepared by adding 30 ml of distilled water to 70 ml of 200 proof ethyl alcohol from Phamco Products. The cells were then stored at −20° C. in the ethanol for at least 24 hours.
The cells that were stored at −20° C. for at least 24 hours were stained with the H3-P antibody and Alexa Fluor as described above for the H3-P+Alexa (GREEN) stained cells. After the incubation of the cells for 30 minutes at 37° C. with the Alexa Fluor, 5 ml of PBS was added to the cells, the cells were centrifuged, the supernatant removed and the cell pellet resuspended in 1.0 ml of PI/RNase A stain (as described above). The cells were stored on ice until analyzed.
Exited instrument set up mode to acquisition mode. Acquisition for DNA analysis was started and 10,000 ungated cells were acquired. […] The FL2 voltage was optimized as needed per sample (i.e., to keep the G1 peak on 200 of FL2-A x-axis) for Aneuploidy and Polyploidy acquisition. 50,000 ungated cells were acquired from each sample. The data was saved in listmode format.
The presence of aneuploid and polyploid cells in the lymphocytes was determined as follows. CellQuest™ Software was opened, and PLOT and OPEN a dialog box from the tool bar for creating a dot plot. FILE was selected and a data file was opened. […] The dot plot was expanded to the width of the paper. A gate was set for the DNA distribution by starting slightly to the left of the cycling population then continuing to the far right region of the dot plot ending the gate at the 2nd Y axis. The extension of this gate to the 2nd Y-axis of the dot plot was to accommodate cells with greater than 4n DNA (see FIG. 1A). PLOT and OPEN a dialog box was chosen from the tool bar for creating a dot plot.
Using the interphase cells as a guide, the first gate was set over the mitotic cell area above the G0G1-S phase areas.

human lymphocytes [2] = assay: Manual microscopic analysis of polyploid cells (polyploid index, Giemsa stained slides); assay type: cell-based; details: at each concentration of Noscapine; 1000 consecutive mitotic cells scored for 8n mitotic cells
Experimental: Human lymphocytes described above and treated or not with Noscapine as described above were subjected to manual analysis of numerical chromosomal abnormalities for comparison with the number of cells having numerical chromosomal abnormalities (i.e. polyploidy) obtained in Example 1. For manual analysis, samples of cells were centrifuged for 6 minutes at 1000 rpm. The supernatant was removed and the cell pellet was resuspended in 5 ml of 1% pre-warmed (37° C.) sodium citrate. The latter solution was prepared by mixing 1 g of […] (Sigma Chemicals) in 100 ml of distilled water. The cells were immediately centrifuged as described above. The supernatant was removed and the pellet was vigorously re-suspended in 5 ml of 4° C. fixative (3:1 methanol:acetic acid). The cells were then centrifuged as described above and the pellet resuspended in 5 ml of 4° C. fixative (3:1 methanol:acetic acid). The cells were then stored overnight at −20° C. or until slide preparation. The slides were prepared as follows. The cells were centrifuged as described above and the supernatant was then poured off. The pellet was re-suspended in about 2 ml of fresh fixative solution. […] The polyploid index was determined by systematically scoring 1000 consecutive mitotic cells for the frequency of 8n mitotic cells under low magnification (bright field).

[3] = stimulated human lymphocytes treated 24 hours at 37° C., flow cytometry

## CN[C@H]1CCc2cc(OC)c(OC)c(OC)c2-c2ccc(OC)c(=O)cc21 [Colcemid®, Colcemid]
Human lymphocytes [1]
  percent of hyperdiploid cells (mitotic cells with DNA content >4n but <8n): increased
  percent of hypodiploid cells (mitotic cells with DNA content >2n but <4n): increased
  percent of polyploid cells (mitotic cells with DNA content of 8N): high

## C=C1[C@@H](C)[C@H]2[C@H](Cc3ccccc3)NC(=O)[C@]23OC(=O)/C=C/[C@H](O)CCC[C@@H](C)C/C=C/[C@H]3[C@@H]1O [Cytochalasin B]
Human lymphocytes [1]; [3]
  percent of hyperdiploid cells (mitotic cells with DNA content >4n but <8n): minimal
  percent of hypodiploid cells (mitotic cells with DNA content >2n but <4n): high
  percent of polyploid cells (mitotic cells with DNA content of 8N): high

## COc1ccc2c(c1OC)C(=O)O[C@@H]2[C@H]1c2c(cc3c(c2OC)OCO3)CCN1C [Noscapine]
Human lymphocytes [2]
  number of polyploid cells counted manually compared with flow cytometric evaluation: similar

From patent US20030104461A1, “Methods for detecting cells with numerical chromosomal abnormalities” (priority 2001, published 2003)
